Test results from the supplement of paper PMC10307832.

Assays:
Test in all cases: relative viability (nuclei count vs DMSO), 5 days (fraction); higher = more cells survive
[1] = compound: N#CC1(c2ccc(NC(=O)c3cccnc3NCc3ccncc3)cc2)CCCC1 [Apatinib] + Cc1cc(Nc2cc(N3CCN(C)CC3)nc(Sc3ccc(NC(=O)C4CC4)cc3)n2)n[nH]1 [Tozasertib] (partner 0.1 µM)
Procedure, shortened: (§1)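 Relative viability was taken as the ratio of nuclei in treated wells to nuclei in vehicle wells. Lung cancer cell lines in 1536-well plates received compounds by pin tool one day after seeding, either one drug alone or a fixed anchor-drug dose plus five library-drug doses (not always all listed) in √10 steps. Nuclei were counted on 4× images after 5 days of treatment, and values are medians of duplicate plates.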

[2] = compound: N#CC1(c2ccc(NC(=O)c3cccnc3NCc3ccncc3)cc2)CCCC1 [Apatinib] + CCNC(=O)c1noc(-c2cc(C(C)C)c(O)cc2O)c1-c1ccc(CN2CCOCC2)cc1 [Luminespib] (partner 0.01 µM)
Procedure, shortened: as §1

[3] = compound: CN(C)C(=N)NC(=N)N [Metformin] + O=C(CCCCCCC(=O)Nc1ccccc1)NO [Vorinostat] (partner 1 µM)
Procedure, shortened: as §1

[4] = compound: N#CC1(c2ccc(NC(=O)c3cccnc3NCc3ccncc3)cc2)CCCC1 [Apatinib] + O=C(c1cc(Cc2n[nH]c(=O)c3ccccc23)ccc1F)N1CCN(C(=O)C2CC2)CC1 [Olaparib] (partner 8 µM)
Procedure, shortened: as §1

Cell Line | relative viability ([1]; first compound 0.08 µM) | relative viability ([1]; first compound 0.253 µM) | relative viability ([1]; first compound 0.8 µM) | relative viability ([1]; first compound 2.53 µM) | relative viability ([1]; first compound 8 µM) | relative viability ([2]; first compound 0.08 µM) | relative viability ([2]; first compound 0.253 µM) | relative viability ([2]; first compound 0.8 µM) | relative viability ([2]; first compound 2.53 µM) | relative viability ([2]; first compound 8 µM) | relative viability ([3]; first compound 10 µM) | relative viability ([3]; first compound 31.62 µM) | relative viability ([3]; first compound 100 µM) | relative viability ([3]; first compound 1000 µM) | relative viability ([4]; first compound 0.08 µM) | relative viability ([4]; first compound 0.8 µM) | relative viability ([4]; first compound 2.53 µM) | relative viability ([4]; first compound 8 µM) | relative viability ([3]; first compound 316.23 µM) | relative viability ([4]; first compound 0.253 µM)
NCI-H727 | 0.676 | 0.631 | 0.545 | 0.559 | 0.488 | 0.307 | 0.31 | 0.393 | 0.387 | 0.233 | 1.1 | 1.16 | 1.13 | 1.13 | 0.812 | 0.725 | 0.622 | 0.718 |  | 
LU99A | 0.325 | 0.317 | 0.276 | 0.231 | 0.203 | 0.294 | 0.302 | 0.221 | 0.241 | 0.213 | 0.417 | 0.579 | 0.411 | 0.479 | 0.286 | 0.276 | 0.252 | 0.207 | 0.397 | 0.269
LXF-289 | 0.211 | 0.247 | 0.171 | 0.175 | 0.132 | 0.644 | 0.857 | 0.633 | 0.652 | 0.743 | 0.65 | 0.661 | 0.712 | 0.729 | 1.03 | 0.993 | 0.956 | 0.904 | 0.66 | 1.18
UMC-11 | 0.193 | 0.194 | 0.198 | 0.211 | 0.198 | 1.13 | 1.02 | 0.926 | 1.04 | 0.886 | 0.471 | 0.452 | 0.483 | 0.406 | 1.14 | 0.397 | 0.328 | 0.365 | 0.377 | 0.411
NCI-H1650 |  | 0.334 | 0.329 | 0.257 | 0.26 |  | 0.185 | 0.217 | 0.179 | 0.168 | 0.492 | 0.675 | 0.799 | 0.52 | 0.827 | 0.799 | 0.761 | 0.696 | 0.529 | 0.787
LCLC-103H | 0.443 | 0.491 | 0.429 | 0.42 | 0.357 | 0.969 | 0.949 | 0.864 | 0.957 | 0.735 | 0.569 | 0.79 | 0.795 | 0.873 | 0.753 | 0.745 | 0.712 | 0.753 | 0.788 | 0.713
NCI-H2405 | 0.911 | 0.759 | 0.685 | 0.607 | 0.604 | 0.675 | 0.695 | 0.653 | 0.621 | 0.491 |  | 0.991 | 1.03 | 0.587 | 0.916 | 0.837 | 0.821 | 0.752 | 1.02 | 0.883
NCI-H522 | 0.48 | 0.487 | 0.693 | 0.504 | 0.567 | 1.14 | 1.08 | 1.27 | 1.07 | 0.955 | 1.15 | 1.11 | 0.923 | 1.03 | 0.667 | 0.615 | 0.692 | 0.584 | 0.99 | 0.644
